Assay results from US20200306295A1, “METHOD AND DEVICE FOR ANNIHILATION OF Staphylococcus aureus” (priority 2017, published 2020).
In brackets after ≈: the same amount, converted by molar mass.

Legend:
[1] = tested on: MRSA NRS384 (MRSA USA 300); experiment: MIC by standard broth-dilution method; format: cell-based, S. aureus; conditions: Staphylococcus aureus; MRSA NRS384 (MRSA USA 300); N = 3; read-out: MIC
Text: (§1) For each measurement, three independent replicates were applied.

stationary-phase MRSA [2] = experiment: Time-killing assay in PBS with or without pulsed laser (CFU enumeration); format: cell-based, S. aureus; conditions: after 6 hours in PBS
Procedure: (§2) To quantify viable bacterial cells, CFU experiments were performed. 100 μl of sample analyte was transferred into a 96-well plate and then three or four ten-fold serial dilution achieved by transferring 20 μl bacterial culture into 180 μl 1×PBS in the next dilution row. After serial dilution, an aliquot (4 μl) from each well was spotted onto sterile TSA plates. After incubating the plates overnight (˜18 hours) at 37° C., the colonies were enumerated, and cell number was calculated in CFU/ml. For each CFU enumeration experiment, three independent replicates were applied.
(§3) Stationary-phase MRSA was prepared, washed and resuspended in 1×PBS at two-times of its original concentration. […] After laser treatment, the droplets were resuspended into 200 μl of 1×PBS (1:40 dilution) supplemented with antibiotics at different concentrations in a mini centrifuge tube (89166-278, VWR international). For example, daptomycin was added into MRSA solution after laser treatment at desired concentration of 0×MIC, 5×MIC, 10×MIC, 30×MIC, or 100×MIC supplemented with 50 μg/ml CaCl2). Corresponding groups without laser treatment were also conducted for comparison. These tubes were incubated within an orbital incubator (37° C., 200 rpm) for different incubation time. At each specific time point, 40 μl of aliquot from each group was transferred to a 96-well plate for follow-up CFU enumerating assay. In the case of tobramycin, additional antibiotic washing by 1×PBS was performed before the CFU experiment to avoid antibiotic interference. For time-killing assay in fresh human whole blood, similar protocol was followed as above, except that 1×PBS was replaced by fresh human whole blood and the initial stationary-phase MRSA solution was diluted by ten times with a concentration of ˜10^7 CFU/ml.

[3] = tested on: VRSA and multidrug-resistant MRSA clinical isolates; experiment: Time-killing assay on resistant clinical isolates; format: cell-based, S. aureus; conditions: 10 MIC daptomycin and laser treatment
Procedure: as §2
as §3, with “In the case of tobramycin, additional antibiotic washing by 1×PBS was performed before the CFU experiment to avoid antibiotic interference. For time-killing assay in fresh human whole blood, similar protocol was followed as above, except that 1×PBS was replaced by fresh human whole blood and the initial stationary-phase MRSA solution was diluted by ten times with a concentration of ˜10^7 CFU/ml.” left out

MRSA USA300 = experiment: In vivo mice skin infection model (daptomycin, pulsed laser); set-up: species or system BALB/c mice
Procedure: The in vivo mice experiment was conducted following protocols approved by Boston University Animal Care and Use Committee (BUACUC). To initiate the formation of a skin wound, five groups (N=5) of eight-week-old female BALB/c mice (obtained from the Jackson Laboratory, ME, USA) were disinfected with ethanol (70%) and shaved on the middle of their back (approximately a one-inch by one-inch square region around the injection site) one day prior to infection as described from a reported procedure^45. To prepare the bacterial inoculum, an aliquot of overnight culture of MRSA USA300 was transferred to fresh TSB and shaken at 37° C. until an OD600 value of ˜1.0 was achieved. The cells were centrifuged, washed once with 1×PBS, re-centrifuged, and then re-suspended in 1×PBS. Mice subsequently received an intradermal injection (40 μl) containing ˜10^9 CFU/ml MRSA USA300. An open wound formed at the site of injection for each mouse, ˜48 hours post-infection. Topical treatment was initiated subsequently with each group of mice receiving the following: daptomycin (1%, using glycerol as the vehicle), pulsed laser (1 cm diameter illumination area, 10 min treatment time, 120 mW), or a combination of pulsed laser and daptomycin. One group of mice was left as the control. […] Data were analyzed via an unpaired t-test, utilizing Origin 2019b (OriginLab Corporation).

stationary-phase MRSA [4] = experiment: Daptomycin-BODIPY membrane insertion assay; format: cell-based, S. aureus; conditions: daptomycin labeled with BODIPY
Procedure: To study how the membrane fluidity change affects the insertion of membrane-targeting antibiotics, we applied daptomycin-BODIPY membrane insertion assay detailed as below. Firstly, we conjugated daptomycin with a fluorescent dye, BODIPY STP ester (B10006, Thermo Fisher Scientific). Briefly, 10 mg of daptomycin (103060-53-3, Acros Organics) was dissolved into 1 ml of 0.1 M sodium bicarbonate solution. Then 100 μl of BODIPY STP ester (B10006, Thermo Fisher Scientific, stock: 1 mg/ml in DMSO) was added to the daptomycin solution drop by drop. Then the mixed solution reacted under stirring at room temperature for 1 hour. Afterwards, the solution was under overnight dialysis against extensive 0.1 M sodium bicarbonate solution. After dialysis, the mixed solution was lyophilized. […] After treatment, bacterial droplets were collected into 985 μl of sterile pre-warned TSB medium containing 150 μg/ml of CaCl2. 10 μl of daptomycin-BODIPY (stock: 3 mg/ml in 1×PBS) was added to the above solution, and incubated for 30 min at 37° C. […] Confocal laser scanning microscope (FV3000, Olympus) was conducted to quantify daptomycin-BODIPY distribution and its signal intensity at an excitation wavelength of 488 nm. Quantitative analysis of the signal from individual MRSA cells was performed among groups with different laser treatment time.

VRSA NR-46419 (VRSA 9) = experiment: MIC by standard broth-dilution method; format: cell-based, S. aureus; conditions: Staphylococcus aureus, N = 3
Text: as §1

stationary-phase MRSA [5] = format: cell-based, S. aureus; conditions: checkerboard assay, MRSA growth inhibition
Procedure: To monitor the response of bacteria to laser treatment alone, antibiotic treatment alone, or their combinations, bacterial growth was continuously monitored overnight (18 hours with an interval of 30 min at 37° C.) by measuring optical density at 600 nm (OD600). Depending on the specific assay applied, the bacterial cells were suspended in 100 or 200 μl TSB medium under different treatment schemes (antibiotic alone, laser treatment alone, antibiotic plus laser treatment) with a final concentration of ˜10^5 CFU/ml. Bacterial growth was defined as OD600≥0.1.
Stationary-phase bacterial cells was washed and resuspended in 1×PBS at its original concentration. […] The treated droplet was collected and resuspended into 5 ml TSB (1:1000 dilution) for each group. Corresponding groups without laser treatment were also conducted for comparison. The bacterial suspensions were transferred to a 96-well plate with antibiotics supplemented into with the first row of the 96-well plate for eight two-fold serial dilution starting at a desired antibiotic concentration (e.g. ofloxacin: 2 μg/ml). After serial dilution, bacterial growth within the same well plate was monitored by a plate reader for 18 hours (OD600, 37° C.). The checkerboard assay was used for groups with laser treatment alone or laser plus antibiotic treatment. Two independent experiments of checkerboard assay were performed for each antibiotic with or without laser treatment. Based on the readout of OD600, a heat map was created to evaluate the antibiotic potentiation or synergistic effect enabled by STX photolysis.
Based on the checkerboard results, the fractional inhibitory concentration index (FICI), a synergy evaluation method between two antibiotics, was calculated as below: FICI=MIC of antibiotic A in combination/MIC of antibiotic A alone+MIC of antibiotic B in combination/MIC of antibiotic B alone. The interaction of the two antibiotics was defined as below: synergy if FICI≤0.5, no interaction if 0.5<FICI≤4, antagonism if FICI>4^46. […] Considering this reason, the synergy calculation was simplified as below: FICI=MIC of antibiotic A in combination with laser treatment/MIC of antibiotic A alone with synergy defined by FICI≤0.5.

[6] = tested on: S. aureus (ATCC 6538) biofilm; conditions: antibiotic alone
[7] = tested on: MRSA USA400 inside murine macrophage cells (J774); experiment: Intracellular MRSA infection model in J774 macrophage cells; conditions: infected macrophage cells; vancomycin 2 μg/mL (4×MIC)

SMILES: CCCCCCCCCC(=O)N[C@@H](Cc1c[nH]c2ccccc12)C(=O)N[C@H](CC(N)=O)C(=O)N[C@@H](CC(=O)O)C(=O)N[C@@H]1C(=O)NCC(=O)N[C@@H](CCCN)C(=O)N[C@@H](CC(=O)O)C(=O)N[C@H](C)C(=O)N[C@@H](CC(=O)O)C(=O)NCC(=O)N[C@H](CO)C(=O)N[C@@H]([C@H](C)CC(=O)O)C(=O)N[C@@H](CC(=O)c2ccccc2N)C(=O)O[C@@H]1C [Daptomycin, daptomycin]
- MIC [1]: 8 µg/mL (≈ 4.94 µM)
- reduction of stationary-phase MRSA (stationary-phase MRSA [2]; 10 MIC with 5 min laser treatment): more than 3.5 log
- reduction of stationary-phase MRSA (stationary-phase MRSA [2]; antibiotic alone at 100 MIC): 1 log
- eradication by synergistic therapy [3]: effective in eradicating
- cell killing in infected skin (CFU) (MRSA USA300; 10 mg/ml daptomycin alone, topical): 81%
- cell killing in infected skin (CFU) (MRSA USA300; 10 mg/ml daptomycin plus 10 min laser): around 95%
- cellular uptake / membrane insertion with laser treatment vs untreated (stationary-phase MRSA [4]): significantly more daptomycin uptake

SMILES: CN[C@H](CC(C)C)C(=O)N[C@H]1C(=O)N[C@@H](CC(N)=O)C(=O)N[C@H]2C(=O)N[C@H]3C(=O)N[C@H](C(=O)N[C@H](C(=O)O)c4cc(O)cc(O)c4-c4cc3ccc4O)[C@H](O)c3ccc(c(Cl)c3)Oc3cc2cc(c3O[C@@H]2O[C@H](CO)[C@@H](O)[C@H](O)[C@H]2O[C@H]2C[C@](C)(N)[C@H](O)[C@H](C)O2)Oc2ccc(cc2Cl)[C@H]1O [Vancomycin, vancomycin]
- MIC (VRSA NR-46419 (VRSA 9)): 256 µg/mL (≈ 177 µM)
- synergism between laser treatment and antibiotic (stationary-phase MRSA [5]): no synergism
- MRSA killed inside biofilm [6]: 70%
- killing of intracellular MRSA 400 (CFU) [7]: no effect
